These results are taken from US20210087217A1, “NUCLEOTIDE HEMI-SULFATE SALT FOR THE TREATMENT OF HEPATITIS C VIRUS” (Atea Pharmaceuticals, Inc., priority 2017, published 2021).

The target of data set [1] is human mitochondrial RNA-dependent RNA polymerase (POLRMT) (Homo sapiens, UniProt O00411). Description: Incorporation of nucleotide analog triphosphates by human mitochondrial RNA polymerase. It is filed as biochemical. The procedure:
The incorporation of these analogs by human mitochondrial RNA-dependent RNA polymerase (POLRMT) were determined according to Arnold et al. (Sensitivity of Mitochondrial Transcription and Resistance of RNA Polymerase II Dependent Nuclear Transcription to Antiviral Ribonucleotides. PLoS Pathog., 2012, 8, e1003030).

Data set [2] can be described thus: in vitro. The conditions noted are these: rat.
Data set [3] can be described thus: Head-to-head comparison of plasma levels in dogs dosed with Compound 1 and Compound 2. It is filed as in vivo, dog. The note with it: dosed Compound 1 25 mg/kg or Compound 2 30 mg/kg, normalized to a dose of 25 mg/kg. The procedure: A head-to-head comparison of dogs dosed with Compound 1 and Compound 2 was conducted.
Data set [4] is described as follows: Solubility in biorelevant test medias (water, SGF, FaSSIF, FeSSIF).
Data set [5] can be described thus: Plasma profiles of Compound 2 metabolites in rats. The conditions noted are these: male, Sprague-Dawley, rat, plasma, po, 500 mg/kg. The procedure:
The results for a single 500 mg/kg dose in rats is shown in FIG. 17 and the results for a single 30, 100, or 300 mg/kg dose in monkeys is shown in FIG. 18.

The nature of data set [6]: Single ascending dose study of Compound 2 in healthy volunteers (Part A): safety, tolerability, pharmacokinetic. The format is in vivo, human. The conditions noted are these: both sexes, human, in vivo. The procedure: Compound 2 was tested in a single ascending dose (SAD) study to measure its safety, tolerability, and pharmacokinetic in healthy subjects (Part A). Part A was a randomized, double-blind, placebo-controlled SAD study. Healthy subjects in Part A received a single dose of Compound 2 or placebo in the fasting state. Subjects were confined to the clinic from Day −1 to Day 6.
Dosing in each cohort was staggered such that 2 subjects (1 active:1 placebo) were evaluated for 48 hours after dosing before the remainder of the cohort was dosed. Each cohort received Compound 2 in ascending order. Dosing of sequential cohorts occurred based on review of available safety data (through Day 5) and plasma pharmacokinetic data (through 24 h) of the prior cohort.
As pharmacokinetic and safety data emerged from prior cohorts, doses evaluated in Cohorts 3a-4a were adjusted by increments no more than 100 mg.
Healthy volunteers in the Part A portion of the study were male and female subjects between the ages of 18 and 65. Active and placebo recipients were pooled within each Part A cohort to preserve the study blind.
(§1) Pharmacokinetic of Compound 1 and nucleoside metabolite 1-7 were measured following the single dose of Compound 2. […] Values are reported as mean±SD, except or Tmax where median (range) is reported.

Data set [7] in a line: Single ascending dose study of Compound 2 in GT1-HCV infected patients (Part B): safety, tolerability, pharmacokinetic. The format is in vivo, human. The note with it: for AUC / Cmax / half-life: mean±SD. The procedure: Subjects in Part B received a single dose of Compound 2 in the fasting state. Patients were confined to the clinic from Day −1 to Day 6.
Part B was initiated after the safety (through Day 5) and plasma pharmacokinetic (through 24 h) data review from Cohort 3a in Part A. Available safety data (through Day 5) and pharmacokinetic data (through 24 h) was reviewed for the first cohort in Part B (Cohort 1b) before enrolling subsequent Part B cohorts. Subsequent Part B cohorts were only dosed following review of available safety and pharmacokinetic data from the respective doses in Part A as well as available safety (through Day 5) from the prior Part B cohorts.
Patients infected with HCV were treatment-naïve, non-cirrhotic GT1-infected subjects with a viral load of ≥5 log10 IU/mL.
as §1
Plasma exposure of Compound 1 was dose-related while exposure of metabolite 1-7 was dose-proportional.

Data set [8] in a line: Plasma profiles of Compound 2 metabolites in monkeys. The format is in vivo, cynomolgus monkeys. The note with it: cynomolgus monkey, plasma, po.
The test system of data set [9] is replicons containing the NS5B sequences from HCV patient plasma samples (GT1a, 1b, 2a, 2b, 3a-1, 3a-2, 4a and 4d). Description: Replicons containing NS5B sequences from HCV patient plasma samples (clinical isolates). It is filed as cell-based. The conditions noted are these: clinical isolates of GT1, GT2, GT3, and GT4, FIG. 24. Background: A replicon is a self-replicating genome or part of one, used to study replication in cells.

For data set [10], the system named is HCV RNA (GT1a HCV). The note with it: after 1 day of 400 mg monotherapy, GT1a HCV-infected subjects; cited from earlier work.
The conditions of data set [11]: sofosbuvir 400 mg QD; cited from earlier work.
Where [12] appears, read: incorporation by human mitochondrial RNA polymerase.
[13] abbreviates: human, in vivo, 100 mg, GT1-HCV infected patients, Compound 2 100 mg.
The mark [14] stands for this setting: human, in vivo, 300 mg, GT1-HCV infected patients, Compound 2 300 mg (first 300 mg line).
[15] abbreviates: human, in vivo, 300 mg, GT1-HCV infected patients, Compound 2 300 mg (second 300 mg line).
[16] abbreviates: human, in vivo, 400 mg, GT1-HCV infected patients, Compound 2 400 mg.
Setting [17] is: human, in vivo, 600 mg, GT1-HCV infected patients, Compound 2 600 mg.

Sequence of human mitochondrial RNA-dependent RNA polymerase (POLRMT) (O00411 42-1230): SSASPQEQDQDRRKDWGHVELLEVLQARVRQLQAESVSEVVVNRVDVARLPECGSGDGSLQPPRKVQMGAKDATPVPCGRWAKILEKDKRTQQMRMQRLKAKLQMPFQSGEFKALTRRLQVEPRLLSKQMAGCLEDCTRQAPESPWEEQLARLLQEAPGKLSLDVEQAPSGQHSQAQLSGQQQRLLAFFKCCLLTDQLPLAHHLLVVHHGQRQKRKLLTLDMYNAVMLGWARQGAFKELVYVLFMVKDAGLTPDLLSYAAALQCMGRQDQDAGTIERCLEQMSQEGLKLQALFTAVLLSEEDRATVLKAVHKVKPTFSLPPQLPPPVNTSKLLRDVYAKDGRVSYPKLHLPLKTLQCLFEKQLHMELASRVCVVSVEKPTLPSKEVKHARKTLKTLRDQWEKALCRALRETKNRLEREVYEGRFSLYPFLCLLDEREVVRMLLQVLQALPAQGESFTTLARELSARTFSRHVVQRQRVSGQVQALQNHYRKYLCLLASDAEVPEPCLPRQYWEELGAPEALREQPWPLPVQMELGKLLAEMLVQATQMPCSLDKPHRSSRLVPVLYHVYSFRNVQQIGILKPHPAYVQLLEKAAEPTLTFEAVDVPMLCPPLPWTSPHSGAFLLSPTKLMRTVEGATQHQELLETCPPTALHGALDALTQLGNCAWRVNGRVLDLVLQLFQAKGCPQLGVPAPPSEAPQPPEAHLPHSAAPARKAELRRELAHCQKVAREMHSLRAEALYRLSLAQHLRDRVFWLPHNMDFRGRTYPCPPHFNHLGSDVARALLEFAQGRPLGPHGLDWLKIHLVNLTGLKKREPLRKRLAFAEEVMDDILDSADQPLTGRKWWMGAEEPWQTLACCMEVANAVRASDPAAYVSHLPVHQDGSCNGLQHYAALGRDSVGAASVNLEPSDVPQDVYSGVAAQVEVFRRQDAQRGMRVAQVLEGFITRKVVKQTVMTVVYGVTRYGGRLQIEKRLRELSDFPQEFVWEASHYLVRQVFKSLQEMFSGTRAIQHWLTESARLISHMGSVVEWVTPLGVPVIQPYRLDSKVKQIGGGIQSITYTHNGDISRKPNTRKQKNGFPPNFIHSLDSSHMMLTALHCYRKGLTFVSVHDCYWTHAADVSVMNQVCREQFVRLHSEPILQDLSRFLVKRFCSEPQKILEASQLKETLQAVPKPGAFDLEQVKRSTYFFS

Turning to `C[C@@]1(O)[C@H](O)[C@@H](COP(=O)(O)OP(=O)(O)OP(=O)(O)O)O[C@H]1n1cnc2c(=O)[nH]c(N)nc21` [2'-C-methyl GTP], in data set [1] (setting [12]), the Kpol turned out to be 0.051 s⁻¹.
The same measure, in the same setting: next, `CC1(F)C(O)C(COP(=O)(O)OP(=O)(O)OP(=O)(O)O)OC1n1ccc(=O)[nH]c1=O` (stereo not shown) [2’-deoxy-2’-F-2’-C-methyl UTP]: 0.00034 s⁻¹.
Consider `CNc1nc(N)nc2c1ncn2[C@@H]1O[C@H](CO[P@@](=O)(N[C@@H](C)C(=O)OC(C)C)Oc2ccccc2)[C@@H](O)[C@@]1(C)F` [Compound 1, isopropyl((S)-(((2R,3R,4R,5R)-5-(2-Amino-6-(methylamino)-9H-purin-9-yl)-4-fluoro-3-hydroxy-4-methyltetrahydrofuran-2-yl)methoxy)(phenoxy)phosphoryl)-L-alaninate], for which the half-life (usually the time needed for the level to fall by half in the phase considered) in data set [2] is under 2 min; in data set [6] (50 mg), 19.2 ± 1.2 min; in data set [6] (100 mg), 31.8 ± 14.4 min; in data set [6] (200 mg), 42.6 ± 9.6 min; in [6] (400 mg), 51.6 ± 9 min; in data set [7] (setting [13]), 32.4 ± 7.2 min. The half-life is 38.4 ± 12 min in data set [7] (setting [14]), 50.4 ± 10.8 min in data set [7] (setting [15]), 51.6 ± 10.8 min in [7] (setting [16]) and 42 ± 7.8 min in data set [7] (setting [17]). The “Mean Dose-normalized AUC(0-4hr) for Compound 1” value in [3] is 0.2 µM·h. In addition, the “Appearance in solubility test” value is given as “Turbid” in data set [4] (FaSSIF), “Turbid” in data set [4] (FeSSIF), “Clear Solution” in [4] (SGF) and “Clear Solution*” in data set [4] (Water). Further, the Solubility descriptive term result in data set [4] (FaSSIF) was “Slightly Soluble”; in data set [4] (FeSSIF) it was “Slightly Soluble”; in [4] (SGF) it was “Sparingly”; in [4] (Water), “Slightly Soluble”. In addition, the AUC(0-t) (as a rule, exposure summed from dosing to a finite time, without extrapolation to infinity) in [5] was 78.2 ng·h/mL; in data set [8] (30 mg/kg), 176 ng·h/mL; in [8] (100 mg/kg), 1100 ng·h/mL; in data set [8] (300 mg/kg), 1600 ng·h/mL. The Cmax (as a rule, the highest concentration seen after dosing) worked out at 60.8 ng/mL in data set [5]; 46.4 ± 17.6 ng/mL in data set [6] (50 mg); 156 ± 96.3 ng/mL in [6] (100 mg); 818 ± 443 ng/mL in data set [6] (200 mg); 1190 ± 401 ng/mL in [6] (400 mg); 212 ± 32 ng/mL in [7] (setting [13]). Moreover, the Cmax was 871 ± 590 ng/mL in [7] (setting [14]); 2280 ± 893 ng/mL in data set [7] (setting [15]); 2680 ± 2110 ng/mL in [7] (setting [16]); 3540 ± 1650 ng/mL in data set [7] (setting [17]); 63.5 ng/mL in data set [8] (30 mg/kg); 783 ng/mL in data set [8] (100 mg/kg). Besides, the Cmax in [8] (300 mg/kg) worked out at 501 ng/mL. Besides, the Tmax in data set [5] is 15 min; in data set [6] (50 mg), 30 min; in data set [6] (100 mg) it was 30 min; in data set [6] (200 mg), 30 min; in [6] (400 mg), 30 min; in data set [7] (GT1-HCV infected patients, Compound 2 300 mg (second 300 mg line), median (range)) it was 0.5 (0.5-1.0) h. In addition, the Tmax in [7] (human, in vivo, 100 mg, read-out: Tmax) is 30 min; in data set [7] (human, in vivo, 300 mg, read-out: Tmax), 30 min; in data set [7] (human, in vivo, 400 mg, read-out: Tmax) it was 60 min; in data set [7] (human, in vivo, 600 mg, read-out: Tmax), 60 min; in [8] (30 mg/kg), 30 to 120 min; in data set [8] (100 mg/kg) it was 60 to 120 min. Further, the AUC (usually concentration integrated over time) in data set [6] (50 mg) is 36.4 ± 12.3 ng·h/mL; in [6] (100 mg), 167 ± 110 ng·h/mL; in data set [6] (200 mg), 656 ± 255 ng·h/mL; in [6] (400 mg) it was 1110 ± 326 ng·h/mL; in data set [7] (setting [13]) it was 179 ± 54.4 ng·h/mL; in data set [7] (setting [14]), 818 ± 475 ng·h/mL. Moreover, the AUC in [7] (setting [15]) came to 1860 ± 1020 ng·h/mL; in [7] (setting [16]), 2410 ± 1010 ng·h/mL; in data set [7] (setting [17]) it was 4130 ± 1130 ng·h/mL. Besides, the EC95 entry in [9] was “less than 25 ng/mL”.
`C[C@@]1(F)[C@H](O)[C@@H](COP(=O)(O)OP(=O)(O)OP(=O)(O)O)O[C@H]1n1cnc2c(=O)[nH]c(N)nc21` [Metabolite 1-6]: in data set [1], the “Incorporation of active triphosphate by human mitochondrial RNA polymerase” value is on record as “poorlyincorporated”. For the same compound, the “Relative Efficiency” value in data set [1] ((Kpol/Kd,app)analog nucleotide/(Kpol/Kd,app)natural nucleotide) was 2.2 × 10^−6. Besides, in data set [1] (setting [12]), the Kpol was 0.0017 s⁻¹ and the “Kpol/Kd,app” value came out at 8.3 M⁻¹ s⁻¹. In data set [1] (incorporation by human mitochondrial RNA polymerase, read-out: Kd,app), the Kd came out at 204 µM.
Regarding `CC(C)OC(=O)[C@H](C)N[P@](=O)(OC[C@H]1O[C@@H](n2ccc(=O)[nH]c2=O)[C@](C)(F)[C@@H]1O)Oc1ccccc1` [sofosbuvir], the “HCV RNA reduction” value in data set [10] is listed as 2 log10 IU/mL. Moreover, the “Steady-state trough concentration (C24,ss) of the nucleoside metabolite” value in data set [11] was “approximately 100 ng/mL”.
